# Measured values reported in the NIST ThermoML archive (doi:10.1016/j.jct.2009.05.004).
# Numbers after ± are expanded uncertainties.
# Assay: mn = molality of the nth substance listed, in mol/kg
# Conditions: Liquid, Vibrating tube method
structure (smiles),measurement,setting,value
[Br-].[Br-].[Zn+2] [zinc bromide] + CCO,mass density,"373.14 K, 19874 kPa, m1 = 0.9305",872.91 ± 0.64 kg/m3
same,mass density,"373.14 K, 24846 kPa, m1 = 1.887",1005.15 ± 0.62 kg/m3
same,mass density,"373.14 K, 24985 kPa, m1 = 0.05681",753.48 ± 0.7 kg/m3
same,mass density,"373.14 K, 25624 kPa, m1 = 0.3043",790.48 ± 0.68 kg/m3
same,mass density,"373.14 K, 34851 kPa, m1 = 0.3043",799.55 ± 0.71 kg/m3
same,mass density,"373.14 K, 39921 kPa, m1 = 0.05681",767.81 ± 0.76 kg/m3
same,mass density,"373.15 K, 1032 kPa, m1 = 0.05681",723.97 ± 0.64 kg/m3
same,mass density,"373.15 K, 1228 kPa, m1 = 0.3043",761.13 ± 0.63 kg/m3
same,mass density,"373.15 K, 1745 kPa, m1 = 1.49",926.45 ± 0.62 kg/m3
same,mass density,"373.15 K, 4944 kPa, m1 = 0.4384",785.45 ± 0.63 kg/m3
same,mass density,"373.15 K, 5301 kPa, m1 = 1.49",931.02 ± 0.62 kg/m3
same,mass density,"373.15 K, 9796 kPa, m1 = 0.1696",752.88 ± 0.65 kg/m3
same,mass density,"373.15 K, 10025 kPa, m1 = 0.3043",772.61 ± 0.65 kg/m3
same,mass density,"373.15 K, 10059 kPa, m1 = 1.49",936.9 ± 0.62 kg/m3
same,mass density,"373.15 K, 14641 kPa, m1 = 0.1696",758.82 ± 0.66 kg/m3
same,mass density,"373.15 K, 14690 kPa, m1 = 0.9305",867.04 ± 0.63 kg/m3
same,mass density,"373.15 K, 14903 kPa, m1 = 0.4384",797.84 ± 0.65 kg/m3
same,mass density,"373.15 K, 15214 kPa, m1 = 1.49",942.98 ± 0.62 kg/m3
same,mass density,"373.15 K, 15627 kPa, m1 = 0.05681",742.91 ± 0.67 kg/m3
same,mass density,"373.15 K, 19954 kPa, m1 = 1.49",948.31 ± 0.62 kg/m3
same,mass density,"373.15 K, 20147 kPa, m1 = 0.3043",784.56 ± 0.67 kg/m3
same,mass density,"373.15 K, 24995 kPa, m1 = 0.9305",878.38 ± 0.64 kg/m3
same,mass density,"373.15 K, 25487 kPa, m1 = 1.49",954.2 ± 0.62 kg/m3
same,mass density,"373.15 K, 29987 kPa, m1 = 1.49",958.73 ± 0.62 kg/m3
same,mass density,"373.15 K, 30014 kPa, m1 = 0.05681",758.65 ± 0.72 kg/m3
same,mass density,"373.15 K, 34798 kPa, m1 = 0.4384",818.78 ± 0.69 kg/m3
same,mass density,"373.15 K, 35026 kPa, m1 = 1.49",963.54 ± 0.62 kg/m3
same,mass density,"373.15 K, 35841 kPa, m1 = 0.05681",764.21 ± 0.74 kg/m3
same,mass density,"373.15 K, 39669 kPa, m1 = 0.1696",784.45 ± 0.74 kg/m3
same,mass density,"373.15 K, 39689 kPa, m1 = 0.4384",823.15 ± 0.7 kg/m3
same,mass density,"373.15 K, 39845 kPa, m1 = 0.3043",804 ± 0.72 kg/m3
same,mass density,"373.15 K, 39954 kPa, m1 = 1.49",967.95 ± 0.62 kg/m3
same,mass density,"373.16 K, 5415 kPa, m1 = 0.3043",766.72 ± 0.64 kg/m3
same,mass density,"373.16 K, 10024 kPa, m1 = 0.05681",735.99 ± 0.66 kg/m3
same,mass density,"373.16 K, 15428 kPa, m1 = 0.3043",779.16 ± 0.66 kg/m3
same,mass density,"373.16 K, 29954 kPa, m1 = 0.3043",794.87 ± 0.7 kg/m3
same,mass density,"373.16 K, 34801 kPa, m1 = 0.1696",780.13 ± 0.72 kg/m3
same,mass density,"373.16 K, 34880 kPa, m1 = 1.887",1014.97 ± 0.62 kg/m3
same,mass density,"373.16 K, 34946 kPa, m1 = 0.9305",888.07 ± 0.65 kg/m3
same,mass density,"373.17 K, 1840 kPa, m1 = 0.9305",851.03 ± 0.62 kg/m3
same,mass density,"373.17 K, 5196 kPa, m1 = 0.9305",855.41 ± 0.63 kg/m3
same,mass density,"373.17 K, 9909 kPa, m1 = 0.9305",861.33 ± 0.63 kg/m3
same,mass density,"373.17 K, 19733 kPa, m1 = 0.1696",764.71 ± 0.68 kg/m3
same,mass density,"373.17 K, 19793 kPa, m1 = 0.4384",803.46 ± 0.66 kg/m3
same,mass density,"373.17 K, 20061 kPa, m1 = 0.05681",748.07 ± 0.69 kg/m3
same,mass density,"373.17 K, 29790 kPa, m1 = 0.9305",883.2 ± 0.65 kg/m3
same,mass density,"373.17 K, 39725 kPa, m1 = 1.887",1019.24 ± 0.62 kg/m3
same,mass density,"373.17 K, 39848 kPa, m1 = 0.9305",892.38 ± 0.65 kg/m3
same,mass density,"393.11 K, 5006 kPa, m1 = 0.1696",724.69 ± 0.64 kg/m3
same,mass density,"393.12 K, 5021 kPa, m1 = 1.887",958.47 ± 0.62 kg/m3
same,mass density,"393.12 K, 5106 kPa, m1 = 0.9305",833.37 ± 0.63 kg/m3
same,mass density,"393.12 K, 20028 kPa, m1 = 0.1696",745.51 ± 0.69 kg/m3
same,mass density,"393.12 K, 20063 kPa, m1 = 0.4384",784.5 ± 0.67 kg/m3
same,mass density,"393.12 K, 25074 kPa, m1 = 0.4384",790.6 ± 0.68 kg/m3
same,mass density,"393.12 K, 34785 kPa, m1 = 1.887",995.67 ± 0.62 kg/m3
same,mass density,"393.12 K, 34930 kPa, m1 = 0.4384",801.35 ± 0.71 kg/m3
same,mass density,"393.12 K, 39767 kPa, m1 = 1.887",1000.55 ± 0.61 kg/m3
same,mass density,"393.13 K, 9820 kPa, m1 = 0.4384",770.68 ± 0.65 kg/m3
same,mass density,"393.13 K, 19900 kPa, m1 = 1.887",978.73 ± 0.62 kg/m3
same,mass density,"393.13 K, 30105 kPa, m1 = 0.9305",865.29 ± 0.65 kg/m3
same,mass density,"393.13 K, 39972 kPa, m1 = 0.4384",806.21 ± 0.72 kg/m3
same,mass density,"393.14 K, 1801 kPa, m1 = 0.9305",828.39 ± 0.62 kg/m3
same,mass density,"393.14 K, 5624 kPa, m1 = 0.3043",745.3 ± 0.64 kg/m3
same,mass density,"393.14 K, 9870 kPa, m1 = 0.9305",840.24 ± 0.63 kg/m3
same,mass density,"393.14 K, 14926 kPa, m1 = 0.4384",777.8 ± 0.66 kg/m3
same,mass density,"393.14 K, 15321 kPa, m1 = 0.05681",722.2 ± 0.68 kg/m3
same,mass density,"393.14 K, 19767 kPa, m1 = 0.9305",853.32 ± 0.64 kg/m3
same,mass density,"393.14 K, 24945 kPa, m1 = 0.3043",771.16 ± 0.69 kg/m3
same,mass density,"393.14 K, 29892 kPa, m1 = 0.1696",757.28 ± 0.72 kg/m3
same,mass density,"393.14 K, 29921 kPa, m1 = 0.05681",740.47 ± 0.74 kg/m3
same,mass density,"393.14 K, 29972 kPa, m1 = 0.4384",796.15 ± 0.69 kg/m3
same,mass density,"393.15 K, 1241 kPa, m1 = 0.05681",701.02 ± 0.64 kg/m3
same,mass density,"393.15 K, 1627 kPa, m1 = 0.3043",739.2 ± 0.63 kg/m3
same,mass density,"393.15 K, 1798 kPa, m1 = 1.887",953.48 ± 0.62 kg/m3
same,mass density,"393.15 K, 1921 kPa, m1 = 1.49",903.69 ± 0.62 kg/m3
same,mass density,"393.15 K, 5026 kPa, m1 = 1.49",908.13 ± 0.62 kg/m3
same,mass density,"393.15 K, 10025 kPa, m1 = 0.3043",751.72 ± 0.65 kg/m3
same,mass density,"393.15 K, 10167 kPa, m1 = 0.1696",732.24 ± 0.66 kg/m3
same,mass density,"393.15 K, 10215 kPa, m1 = 0.05681",714.93 ± 0.66 kg/m3
same,mass density,"393.15 K, 10412 kPa, m1 = 1.49",915.55 ± 0.62 kg/m3
same,mass density,"393.15 K, 15026 kPa, m1 = 1.49",921.63 ± 0.62 kg/m3
same,mass density,"393.15 K, 19932 kPa, m1 = 0.05681",728.38 ± 0.7 kg/m3
same,mass density,"393.15 K, 20215 kPa, m1 = 1.49",928.15 ± 0.62 kg/m3
same,mass density,"393.15 K, 24815 kPa, m1 = 0.9305",859.38 ± 0.65 kg/m3
same,mass density,"393.15 K, 24872 kPa, m1 = 1.887",984.66 ± 0.62 kg/m3
same,mass density,"393.15 K, 25654 kPa, m1 = 1.49",934.64 ± 0.63 kg/m3
same,mass density,"393.15 K, 29841 kPa, m1 = 0.3043",776.76 ± 0.71 kg/m3
same,mass density,"393.15 K, 29885 kPa, m1 = 1.887",990.35 ± 0.62 kg/m3
same,mass density,"393.15 K, 29954 kPa, m1 = 1.49",939.52 ± 0.63 kg/m3
same,mass density,"393.15 K, 35014 kPa, m1 = 1.49",944.97 ± 0.63 kg/m3
same,mass density,"393.15 K, 39824 kPa, m1 = 0.05681",750.71 ± 0.78 kg/m3
same,mass density,"393.15 K, 39865 kPa, m1 = 0.3043",787.01 ± 0.74 kg/m3
same,mass density,"393.15 K, 39921 kPa, m1 = 1.49",949.96 ± 0.63 kg/m3
same,mass density,"393.15 K, 39924 kPa, m1 = 0.1696",767.7 ± 0.76 kg/m3
same,mass density,"393.16 K, 1957 kPa, m1 = 0.1696",720.03 ± 0.64 kg/m3
same,mass density,"393.16 K, 5064 kPa, m1 = 0.05681",707.12 ± 0.65 kg/m3
same,mass density,"393.16 K, 14857 kPa, m1 = 0.1696",738.74 ± 0.67 kg/m3
same,mass density,"393.16 K, 15924 kPa, m1 = 0.3043",759.83 ± 0.67 kg/m3
same,mass density,"393.16 K, 24739 kPa, m1 = 0.1696",751.32 ± 0.7 kg/m3
same,mass density,"393.16 K, 25067 kPa, m1 = 0.05681",734.81 ± 0.72 kg/m3
same,mass density,"393.16 K, 34854 kPa, m1 = 0.3043",782.09 ± 0.72 kg/m3
same,mass density,"393.16 K, 34855 kPa, m1 = 0.1696",762.63 ± 0.74 kg/m3
same,mass density,"393.16 K, 34890 kPa, m1 = 0.9305",870.24 ± 0.66 kg/m3
same,mass density,"393.16 K, 35621 kPa, m1 = 0.05681",746.57 ± 0.76 kg/m3
same,mass density,"393.16 K, 39922 kPa, m1 = 0.9305",875.04 ± 0.67 kg/m3
same,mass density,"393.17 K, 4784 kPa, m1 = 0.4384",763.23 ± 0.64 kg/m3
same,mass density,"393.17 K, 14838 kPa, m1 = 0.9305",847.01 ± 0.64 kg/m3
same,mass density,"393.17 K, 14975 kPa, m1 = 1.887",972.19 ± 0.62 kg/m3
same,mass density,"393.17 K, 19958 kPa, m1 = 0.3043",765.06 ± 0.68 kg/m3
same,mass density,"393.18 K, 10012 kPa, m1 = 1.887",965.38 ± 0.62 kg/m3
same,mass density,"393.19 K, 1568 kPa, m1 = 0.4384",758.24 ± 0.63 kg/m3
